# Assay results: ChEMBL document CHEMBL4004803, “Syntheses and antibacterial activity of soluble 9-bromo substituted indolizinoquinoline-5,12-dione derivatives” (Eur J Med Chem, 2017)
# How the values were obtained:
# Escherichia coli = assay: Antibacterial activity against Escherichia coli ATCC 25922 after 20 to 24 hrs by two-fold microdilution method; type: functional
# Staphylococcus aureus [1] = assay: Antibacterial activity against methicillin-resistant Staphylococcus aureus ATCC 43300 after 20 to 24 hrs by two-fold microdilution method; type: functional
# [2] = system: Staphylococcus haemolyticus; assay: Antibacterial activity against Staphylococcus haemolyticus CICC 10373 after 20 to 24 hrs by two-fold microdilution method; type: functional
# Streptococcus pneumoniae = assay: Antibacterial activity against Streptococcus pneumoniae ATCC 6305 after 20 to 24 hrs by two-fold microdilution method; type: functional
# [3] = system: Staphylococcus epidermidis; assay: Antibacterial activity against Staphylococcus epidermidis ATCC 12228 after 20 to 24 hrs by two-fold microdilution method; type: functional
# Enterococcus faecalis = assay: Antibacterial activity against Enterococcus faecalis ATCC 29212 after 20 to 24 hrs by two-fold microdilution method; type: functional
# Staphylococcus aureus [4] = assay: Antibacterial activity against methicillin-resistant Staphylococcus aureus 215073 clinical isolate after 20 to 24 hrs by two-fold microdilution method; type: functional
# Staphylococcus aureus [5] = assay: Antibacterial activity against methicillin-resistant Staphylococcus aureus 122045 clinical isolate after 20 to 24 hrs by two-fold microdilution method; type: functional
# Staphylococcus aureus [6] = assay: Antibacterial activity against methicillin-resistant Staphylococcus aureus 305026 clinical isolate after 20 to 24 hrs by two-fold microdilution method; type: functional
# Staphylococcus aureus [7] = assay: Antibacterial activity against methicillin-resistant Staphylococcus aureus 214026 clinical isolate after 20 to 24 hrs by two-fold microdilution method; type: functional
# Staphylococcus aureus [8] = assay: Antibacterial activity against methicillin-resistant Staphylococcus aureus 219236 clinical isolate after 20 to 24 hrs by two-fold microdilution method; type: functional
# Staphylococcus aureus [9] = assay: Antibacterial activity against methicillin-resistant Staphylococcus aureus 103054 clinical isolate after 20 to 24 hrs by two-fold microdilution method; type: functional
# Staphylococcus aureus [10] = assay: Antibacterial activity against methicillin-resistant Staphylococcus aureus 112430 clinical isolate after 20 to 24 hrs by two-fold microdilution method; type: functional
# Staphylococcus aureus [11] = assay: Antibacterial activity against methicillin-resistant Staphylococcus aureus 110910-2 clinical isolate after 20 to 24 hrs by two-fold microdilution method; type: functional
# Staphylococcus aureus [12] = assay: Antibacterial activity against methicillin-resistant Staphylococcus aureus 110414 clinical isolate after 20 to 24 hrs by two-fold microdilution method; type: functional
# Staphylococcus aureus [13] = assay: Antibacterial activity against methicillin-resistant Staphylococcus aureus 110325 clinical isolate after 20 to 24 hrs by two-fold microdilution method; type: functional
# Staphylococcus aureus [14] = assay: Antibacterial activity against methicillin-resistant Staphylococcus aureus 11819 clinical isolate after 20 to 24 hrs by two-fold microdilution method; type: functional
# Staphylococcus aureus [15] = assay: Antibacterial activity against methicillin-resistant Staphylococcus aureus 11703 clinical isolate after 20 to 24 hrs by two-fold microdilution method; type: functional
# Staphylococcus aureus [16] = assay: Antibacterial activity against methicillin-resistant Staphylococcus aureus 19950 clinical isolate after 20 to 24 hrs by two-fold microdilution method; type: functional
# Staphylococcus aureus [17] = assay: Antibacterial activity against methicillin-resistant Staphylococcus aureus 12308 clinical isolate after 20 to 24 hrs by two-fold microdilution method; type: functional
# Staphylococcus aureus [18] = assay: Antibacterial activity against methicillin-resistant Staphylococcus aureus 130031 clinical isolate after 20 to 24 hrs by two-fold microdilution method; type: functional
# Staphylococcus aureus [19] = assay: Antibacterial activity against methicillin-resistant Staphylococcus aureus 224001 clinical isolate after 20 to 24 hrs by two-fold microdilution method; type: functional
# Staphylococcus aureus [20] = assay: Antibacterial activity against methicillin-resistant Staphylococcus aureus 30116-1 clinical isolate after 20 to 24 hrs by two-fold microdilution method; type: functional
# Staphylococcus aureus [21] = assay: Antibacterial activity against methicillin-resistant Staphylococcus aureus 3250299 clinical isolate after 20 to 24 hrs by two-fold microdilution method; type: functional
# Staphylococcus aureus [22] = assay: Antibacterial activity against methicillin-resistant Staphylococcus aureus 504008 clinical isolate after 20 to 24 hrs by two-fold microdilution method; type: functional
# Staphylococcus aureus [23] = assay: Antibacterial activity against methicillin-resistant Staphylococcus aureus 625032 clinical isolate after 20 to 24 hrs by two-fold microdilution method; type: functional
# Staphylococcus aureus [24] = assay: Antibacterial activity against methicillin-resistant Staphylococcus aureus 518036 clinical isolate after 20 to 24 hrs by two-fold microdilution method; type: functional
# Staphylococcus aureus [25] = assay: Antibacterial activity against methicillin-resistant Staphylococcus aureus 519028 clinical isolate after 20 to 24 hrs by two-fold microdilution method; type: functional
# Staphylococcus aureus [26] = assay: Antibacterial activity against methicillin-resistant Staphylococcus aureus 519238 clinical isolate after 20 to 24 hrs by two-fold microdilution method; type: functional
# Staphylococcus aureus [27] = assay: Antibacterial activity against methicillin-resistant Staphylococcus aureus 519030 clinical isolate after 20 to 24 hrs by two-fold microdilution method; type: functional
# Staphylococcus aureus [28] = assay: Antibacterial activity against methicillin-resistant Staphylococcus aureus 523005 clinical isolate after 20 to 24 hrs by two-fold microdilution method; type: functional
# Staphylococcus aureus [29] = assay: Antibacterial activity against methicillin-resistant Staphylococcus aureus 531026 clinical isolate after 20 to 24 hrs by two-fold microdilution method; type: functional
# Staphylococcus aureus [30] = assay: Antibacterial activity against methicillin-resistant Staphylococcus aureus 814039 clinical isolate after 20 to 24 hrs by two-fold microdilution method; type: functional
# Staphylococcus aureus [31] = assay: Antibacterial activity against methicillin-resistant Staphylococcus aureus 912014 clinical isolate after 20 to 24 hrs by two-fold microdilution method; type: functional
# Staphylococcus aureus [32] = assay: Antibacterial activity against methicillin-resistant Staphylococcus aureus 919205 clinical isolate after 20 to 24 hrs by two-fold microdilution method; type: functional
# Staphylococcus aureus [33] = assay: Antibacterial activity against methicillin-resistant Staphylococcus aureus 1012039 clinical isolate after 20 to 24 hrs by two-fold microdilution method; type: functional
# Staphylococcus aureus [34] = assay: Antibacterial activity against methicillin-resistant Staphylococcus aureus 1024010 clinical isolate after 20 to 24 hrs by two-fold microdilution method; type: functional
# Staphylococcus aureus [35] = assay: Antibacterial activity against methicillin-resistant Staphylococcus aureus 1025022 clinical isolate after 20 to 24 hrs by two-fold microdilution method; type: functional
# Staphylococcus aureus [36] = assay: Antibacterial activity against methicillin-resistant Staphylococcus aureus 1211026 clinical isolate after 20 to 24 hrs by two-fold microdilution method; type: functional
# Staphylococcus aureus [37] = assay: Antibacterial activity against methicillin-resistant Staphylococcus aureus 1212221 clinical isolate after 20 to 24 hrs by two-fold microdilution method; type: functional
# Staphylococcus aureus [38] = assay: Antibacterial activity against methicillin-resistant Staphylococcus aureus 1101016 clinical isolate after 20 to 24 hrs by two-fold microdilution method; type: functional
# Staphylococcus aureus [39] = assay: Antibacterial activity against methicillin-resistant Staphylococcus aureus 1106003 clinical isolate after 20 to 24 hrs by two-fold microdilution method; type: functional
# Staphylococcus aureus [40] = assay: Antibacterial activity against methicillin-resistant Staphylococcus aureus 1128040 clinical isolate after 20 to 24 hrs by two-fold microdilution method; type: functional
# Staphylococcus aureus [41] = assay: Antibacterial activity against methicillin-resistant Staphylococcus aureus 1207026 clinical isolate after 20 to 24 hrs by two-fold microdilution method; type: functional
# Staphylococcus aureus [42] = assay: Antibacterial activity against methicillin-resistant Staphylococcus aureus 112047 clinical isolate after 20 to 24 hrs by two-fold microdilution method; type: functional
# Staphylococcus aureus [43] = assay: Antibacterial activity against methicillin-resistant Staphylococcus aureus 125025 clinical isolate after 20 to 24 hrs by two-fold microdilution method; type: functional
# [44] = Solubility of the compound in water at 25 degC measured after shaking for 4 hrs by UV method; type: physicochemical; details: buffer, 4 h
smiles,measurement,setting,value
O=C1c2cccnc2C(=O)c2c1c(C(=O)OCCCCN1CCOCC1)c1ccc(Br)cn21,MIC,Escherichia coli,> 16 µg/mL
same,MIC,Staphylococcus aureus [1],0.063 µg/mL
same,MIC,[2],0.125 µg/mL
same,MIC,Streptococcus pneumoniae,4 µg/mL
same,MIC,[3],≤ 0.0078 µg/mL
same,MIC,Enterococcus faecalis,0.25 µg/mL
same,MIC,Staphylococcus aureus [4],0.063 µg/mL
same,MIC,Staphylococcus aureus [5],0.125 µg/mL
same,MIC,Staphylococcus aureus [6],0.125 µg/mL
same,MIC,Staphylococcus aureus [7],0.063 µg/mL
same,MIC,Staphylococcus aureus [8],0.063 µg/mL
same,MIC,Staphylococcus aureus [9],0.5 µg/mL
same,MIC,Staphylococcus aureus [10],0.5 µg/mL
same,MIC,Staphylococcus aureus [11],0.5 µg/mL
same,MIC,Staphylococcus aureus [12],0.5 µg/mL
same,MIC,Staphylococcus aureus [13],0.25 µg/mL
same,MIC,Staphylococcus aureus [14],0.125 µg/mL
same,MIC,Staphylococcus aureus [15],0.5 µg/mL
same,MIC,Staphylococcus aureus [16],1 µg/mL
same,MIC,Staphylococcus aureus [17],0.25 µg/mL
same,MIC,Staphylococcus aureus [18],1 µg/mL
same,MIC,Staphylococcus aureus [19],1 µg/mL
same,MIC,Staphylococcus aureus [20],0.5 µg/mL
same,MIC,Staphylococcus aureus [21],0.5 µg/mL
same,MIC,Staphylococcus aureus [22],0.25 µg/mL
same,MIC,Staphylococcus aureus [23],0.5 µg/mL
same,MIC,Staphylococcus aureus [24],0.5 µg/mL
same,MIC,Staphylococcus aureus [25],0.5 µg/mL
same,MIC,Staphylococcus aureus [26],0.5 µg/mL
same,MIC,Staphylococcus aureus [27],1 µg/mL
same,MIC,Staphylococcus aureus [28],0.5 µg/mL
same,MIC,Staphylococcus aureus [29],0.25 µg/mL
same,MIC,Staphylococcus aureus [30],0.25 µg/mL
same,MIC,Staphylococcus aureus [31],0.5 µg/mL
same,MIC,Staphylococcus aureus [32],1 µg/mL
same,MIC,Staphylococcus aureus [33],0.5 µg/mL
same,MIC,Staphylococcus aureus [34],0.5 µg/mL
same,MIC,Staphylococcus aureus [35],0.125 µg/mL
same,MIC,Staphylococcus aureus [36],0.125 µg/mL
same,MIC,Staphylococcus aureus [37],0.125 µg/mL
same,MIC,Staphylococcus aureus [38],0.25 µg/mL
same,MIC,Staphylococcus aureus [39],16 µg/mL
same,MIC,Staphylococcus aureus [40],0.25 µg/mL
same,MIC,Staphylococcus aureus [41],0.5 µg/mL
same,MIC,Staphylococcus aureus [42],0.25 µg/mL
same,MIC,Staphylococcus aureus [43],0.25 µg/mL
same,solubility,[44],Insoluble
